Drawing on ChEMBL document CHEMBL1130600, “Tropane-based amino acids for peptide structure-function studies: inhibitors of platelet aggregation” (Bioorg Med Chem Lett, 1998), this text covers IC50 for 11 compounds.

Where only a bound is given, the exact number is not on record here.

The species named for the assay is Homo sapiens. Kind of assay: Compound was tested for its ability to inhibit the thrombin-induced platelet aggregation in washed human platelets. Type of assay: functional.
A word on the IC50: it is the point on the concentration scale where inhibition reaches its midpoint. As to `CC(=O)N[C@H](CCCCN)C(=O)N1C2CCC1C(C(=O)NCCC(=O)O)C2` (stereo partly specified), the half-maximal inhibitory concentration (IC50) is above 500 µM.

The compound `CC(=O)N[C@H](CCCCN)C(=O)N1CCCC(C(=O)NCCC(=O)O)C1` (stereo partly specified) displayed an IC50 of 20 µM.

For the compound `CC(=O)NC(CCCCN)C(=O)N1CCCC(C(=O)NCCC(=O)O)C1` (stereo unspecified), half-maximal inhibition (IC50) required 60 µM.

In turn, `CC(=O)N[C@H](CCCCN)C(=O)N1C2CC=C(C(=O)NCCC(=O)O)C1CC2` (stereo partly specified) displayed a half-maximal inhibitory concentration (IC50) of 160 µM. This IC50 lies about 2.7-fold higher than the previous one.

In turn, `NC(N)=NCCCC(N)C(=O)N1C2CCC1C(C(=O)NC(CC(=O)O)C(=O)NC(CO)C(=O)O)C2` (stereo unspecified) yielded an IC50 of 402 µM.

In turn, `NC(N)=NCCCC(N)C(=O)N1C2CC=C(C(=O)NC(CC(=O)O)C(=O)NC(CO)C(=O)O)C1CC2` (stereo unspecified) had an IC50 of 270 µM.

Consider `NC(N)=NCCCC(N)C(=O)N1C2CCC(C(=O)NC(CC(=O)O)C(=O)NC(CO)C(=O)O)C1CC2` (stereo unspecified), for which the IC50 amounted to 23 µM.

In turn, `CC(=O)NC(CCCCN)C(=O)N1C2CCC(C(=O)NCCC(=O)O)C1CC2` (stereo unspecified) showed an IC50 of 370 µM. This IC50 lies about 16-fold higher than the previous one.

`CC(=O)NC(CCCCN)C(=O)N1C2CCC1C(C(=O)NCCC(=O)O)C2` (stereo unspecified): the 50% inhibitory concentration (IC50) was above 500 µM.

`CC(=O)N[C@H](CCCCN)C(=O)N1C2CCC(C(=O)NCCC(=O)O)C1CC2` (stereo partly specified) gave an IC50 of 30 µM.

For `CC(=O)NC(CCCCN)C(=O)N1C2CC=C(C(=O)NCCC(=O)O)C1CC2` (stereo unspecified), the IC50 is above 500 µM.
